Measurements from US9193722B2, “Tri-cyclic pyrazolopyridine kinase inhibitors” (Vertex Pharmaceuticals Incorporated, priority 2008, dated 2015).

Key:
Type in all cases: biochemical
[1] = molecular target: PKC alpha kinase (Homo sapiens, UniProt P17252); assay: PKC alpha kinase inhibition, coupled-enzyme (NADH absorbance) assay, Ki; conditions: 130 μM ATP, 4.5 nM PKC alpha kinase, 30° C.
Summary of the method: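 Ki derived by non-linear regression of initial rates from a coupled assay tracking NADH absorbance at 340 nm over 15 min at 30 °C. ATP was 130 μM final after a 10 min compound–enzyme preincubation in HEPES pH 7.5 buffer with MgCl2, CaCl2, NaCl, EDTA and Brij.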

[2] = molecular target: PKC delta kinase (Homo sapiens, UniProt Q05655); assay: PKC delta kinase inhibition, coupled-enzyme (NADH absorbance) assay, Ki; conditions: 150 μM ATP, 46 nM PKC delta kinase, 30° C.; read-out: Ki PKC delta
Summary of the method: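 Enzyme and compound pre-equilibrated 10 min at 30° C before adding ATP to 150 μM final. Buffer: HEPES pH 7.5 (100 mM), 10 mM MgCl2, 25 mM NaCl, 0.1 mM EDTA, 0.01% Brij.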

[3] = molecular target: PKC theta kinase (Homo sapiens, UniProt Q04759); assay: PKC theta kinase inhibition, coupled-enzyme (NADH absorbance) assay, Ki; conditions: 240 μM ATP, 18 nM PKC theta kinase, 30° C.
Summary of the method: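 Enzyme and compound equilibrated 10 min at 30 °C before reaction in HEPES pH 7.5 buffer with MgCl2, NaCl, EDTA and Brij. Activity tracked as NADH loss at 340 nm through a coupled system. Initial-rate data fitted by non-linear regression to give Ki.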

PKC theta kinase, sequence (Q04759 whole entry): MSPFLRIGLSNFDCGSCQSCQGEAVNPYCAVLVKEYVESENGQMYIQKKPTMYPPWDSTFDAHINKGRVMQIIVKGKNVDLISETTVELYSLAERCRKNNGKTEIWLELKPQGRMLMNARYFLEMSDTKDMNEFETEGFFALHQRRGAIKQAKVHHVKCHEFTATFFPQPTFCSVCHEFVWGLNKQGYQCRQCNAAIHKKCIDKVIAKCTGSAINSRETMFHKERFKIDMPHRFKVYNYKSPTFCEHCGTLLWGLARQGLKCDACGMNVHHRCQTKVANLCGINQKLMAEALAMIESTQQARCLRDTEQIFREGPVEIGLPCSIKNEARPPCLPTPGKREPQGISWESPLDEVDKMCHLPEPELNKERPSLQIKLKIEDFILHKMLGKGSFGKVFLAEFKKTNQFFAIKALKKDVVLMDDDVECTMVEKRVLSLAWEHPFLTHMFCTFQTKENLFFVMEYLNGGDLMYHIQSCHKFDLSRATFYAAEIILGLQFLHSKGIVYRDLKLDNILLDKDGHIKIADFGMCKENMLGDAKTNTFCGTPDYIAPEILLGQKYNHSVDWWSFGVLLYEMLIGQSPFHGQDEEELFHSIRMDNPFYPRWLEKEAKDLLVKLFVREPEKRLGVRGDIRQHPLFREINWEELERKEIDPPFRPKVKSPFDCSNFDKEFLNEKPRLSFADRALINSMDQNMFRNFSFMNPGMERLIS
PKC delta kinase, sequence (Q05655 whole entry): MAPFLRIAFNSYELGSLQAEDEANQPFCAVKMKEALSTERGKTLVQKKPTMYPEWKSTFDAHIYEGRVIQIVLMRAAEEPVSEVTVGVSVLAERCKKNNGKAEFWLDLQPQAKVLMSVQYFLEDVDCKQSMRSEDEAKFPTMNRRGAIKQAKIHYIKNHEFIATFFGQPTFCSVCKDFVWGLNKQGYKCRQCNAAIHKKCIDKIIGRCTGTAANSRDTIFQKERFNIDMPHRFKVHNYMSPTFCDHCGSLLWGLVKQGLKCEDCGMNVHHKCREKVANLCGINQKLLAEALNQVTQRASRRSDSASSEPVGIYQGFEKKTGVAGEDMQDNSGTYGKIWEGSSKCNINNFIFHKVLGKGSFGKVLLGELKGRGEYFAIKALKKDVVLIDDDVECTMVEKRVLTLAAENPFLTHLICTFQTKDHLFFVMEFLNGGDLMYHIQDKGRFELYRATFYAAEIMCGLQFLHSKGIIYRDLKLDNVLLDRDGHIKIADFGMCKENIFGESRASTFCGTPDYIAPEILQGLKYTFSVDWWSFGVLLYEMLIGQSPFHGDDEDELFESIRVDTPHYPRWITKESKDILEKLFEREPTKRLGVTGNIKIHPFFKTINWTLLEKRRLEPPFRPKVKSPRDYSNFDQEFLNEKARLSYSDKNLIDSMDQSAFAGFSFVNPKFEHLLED

| Ki [1] [nM] | Ki [2] [nM] | Ki [3] [nM] | Structure (SMILES) |
| --- | --- | --- | --- |
| < 2800 | < 500 | < 50 | FC1(c2cccc(-c3n[nH]c4ncccc34)n2)CCNCC1 [Compound 83] |
| > 1250 | > 1250 | > 700 | Fc1ccc(N2CCC3(CCNC3)C2)nc1-c1n[nH]c2ncccc12 (stereo not drawn) [Compound 312] |
| > 1250 | > 1250 | < 500 | COC(C)C1CN(c2ccc(C(F)(F)F)c(-c3n[nH]c4ncccc34)n2)CCN1 (stereo not drawn) [Compound 221] |
| > 1250 | > 1250 | < 500 | NCC1CCN(c2cc(C(F)(F)F)cc(-c3n[nH]c4ncccc34)n2)CC1 [Compound 412] |
| > 1250 | < 2800 | < 500 | NCC1CCN(c2cccc(-c3n[nH]c4ncccc34)n2)CC1 [Compound 64] |
| > 1250 | > 1250 | > 700 | OCC1CCN(c2ccc(C(F)(F)F)c(-c3n[nH]c4ncccc34)n2)CC1 [Compound 321] |
| < 500 | < 2800 | < 50 | FC(F)(F)c1ccc(N2CCNC(c3cccc(Cl)c3)C2)nc1-c1n[nH]c2ncccc12 (stereo not drawn) [Compound 170] |
| > 1250 | < 2800 | < 500 | CCC[C@H]1CN(c2cccc(-c3n[nH]c4ncccc34)n2)C[C@H](CC(C)C)N1 [Compound 14] |
| > 1250 | > 1250 | < 500 | NCC1CN(c2ccc(F)c(-c3n[nH]c4ncccc34)n2)C1 [Compound 387] |
| > 1250 | > 1250 | < 2800 | Cc1cc(N2CCC(N)CC2)nc(-c2n[nH]c3ncccc23)c1Cl [Compound 109] |
| < 2800 | < 500 | < 50 | CCC(C)(O)C1CN(c2cccc(-c3n[nH]c4ncccc34)n2)CCN1 (stereo not drawn) [Compound 160] |
| > 1250 | > 1250 | < 500 | CC(C)C[C@@H]1C[C@H](N)CN(c2ccc(C(F)(F)F)c(-c3n[nH]c4ncccc34)n2)C1 [Compound 364] |
| > 1250 | > 1250 | > 700 | CC1CN(c2ccc(C(F)(F)F)c(-c3n[nH]c4ncccc34)n2)CC1CN (stereo not drawn) [Compound 332] |
| < 2800 | < 500 | < 50 | CC(C)C(C)(O)C1CN(c2cc(CO)cc(-c3n[nH]c4ncccc34)n2)CCN1 (stereo not drawn) [Compound 454] |
| > 1250 | > 1250 | < 50 | CC(C)(C)C[C@H]1CN(c2ccc(C(F)(F)F)c(-c3n[nH]c4ncccc34)n2)CCN1 [Compound 140] |
| > 1250 | > 1250 | < 500 | CC1(C)CC1(O)C1CN(c2ccc(F)c(-c3n[nH]c4ncccc34)n2)CCN1 (stereo not drawn) [Compound 382] |
| > 1250 | < 500 | < 500 | CC1(C)CN(c2ccc(C(F)(F)F)c(-c3n[nH]c4ncccc34)n2)CCC1N (stereo not drawn) [Compound 428] |
| > 1250 | < 2800 | < 500 | FC(F)(F)c1ccc(N2CCNCC2)nc1-c1n[nH]c2ncccc12 [Compound 8] |
| > 1250 | > 2000 | < 500 | CC(C)[C@H]1CN(c2ccc(C(F)(F)F)c(-c3n[nH]c4ncccc34)n2)CCN1 [Compound 98] |
| > 1250 | > 1250 | < 500 | Cc1ccc(C2CN(c3ccc(C(F)(F)F)c(-c4n[nH]c5ncccc45)n3)CCN2)cc1 (stereo not drawn) [Compound 133] |
| > 1250 | > 1250 | < 500 | CC(C)C[C@@]1(F)CN(c2ccc(C(F)(F)F)c(-c3n[nH]c4ncccc34)n2)CC[C@H]1O [Compound 198] |
| > 1250 | > 1250 | < 2800 | NCC1CN(c2cc(C(F)(F)F)cc(-c3n[nH]c4ncccc34)n2)C1 [Compound 433] |
| > 1250 | < 2800 | < 50 | CC(C)CC1CN(c2ccc(F)c(-c3n[nH]c4ncccc34)n2)CCC1C#N (stereo not drawn) [Compound 370] |
| > 1250 | < 500 | < 500 | CC(C)CC1(C(F)(F)F)CN(c2ccc(C(F)(F)F)c(-c3n[nH]c4ncccc34)n2)CCC1N (stereo not drawn) [Compound 405] |
| < 500 | < 50 | < 50 | c1cc(-c2n[nH]c3ncccc23)nc(N2CCNC3(CCC3)C2)c1 [Compound 187] |
| > 1250 | > 2000 | < 500 | CC(C)C[C@H]1CN(c2ccc(C(F)(F)F)c(-c3n[nH]c4ncccc34)n2)CC[C@@H]1N [Compound 85] |

| Ki [1] [nM] | Ki [2] [nM] | Ki [3] [nM] | Structure (SMILES) |
| --- | --- | --- | --- |
| > 1250 | < 500 | < 50 | CCC1(C)CN(c2ccc(C(F)(F)F)c(-c3n[nH]c4ncccc34)n2)CCC1N (stereo not drawn) [Compound 447] |
| > 1250 | < 500 | < 50 | CCC(C)(O)C1CN(c2ccc(F)c(-c3n[nH]c4ncccc34)n2)CCN1 (stereo not drawn) [Compound 161] |
| > 1250 | > 1250 | < 500 | NC[C@H]1CCN(c2ccc(F)c(-c3n[nH]c4ncccc34)n2)C1 [Compound 362] |
| > 1250 | > 1250 | > 700 | CNC(=O)C1CN(c2ccc(C(F)(F)F)c(-c3n[nH]c4ncccc34)n2)CCN1 (stereo not drawn) [Compound 214] |
| > 1250 | < 500 | < 50 | CC(C)C(C)(O)C1CN(c2nc(-c3n[nH]c4ncccc34)ccc2F)CCN1 (stereo not drawn) [Compound 374] |
| < 2800 | < 2800 | < 50 | Cc1cccc(C2CN(c3ccc(C(F)(F)F)c(-c4n[nH]c5ncccc45)n3)CCN2)c1 (stereo not drawn) [Compound 134] |
| > 1250 | > 2000 | > 700 | CC(C)C[C@@H]1CC(O)(c2cccc(-c3n[nH]c4ncccc34)n2)CCN1 (stereo partly drawn) [Compound 73] |
| < 500 | < 500 | < 50 | CC(C)C[C@]1(O)CN(c2ccc(C(F)(F)F)c(-c3n[nH]c4ncccc34)n2)CC[C@H]1N [Compound 218] |
| > 1250 | > 1250 | < 500 | CC1(N)CCCN(c2ccc(F)c(-c3n[nH]c4ncccc34)n2)C1 (stereo not drawn) [Compound 316] |
| < 2800 | < 2800 | < 50 | CC(C)C[C@H]1CN(c2nc(-c3n[nH]c4ncccc34)ccc2F)CCN1 [Compound 131] |
| > 1250 | < 2800 | < 50 | CC(F)(F)C(C)(O)C1CN(c2ccc(F)c(-c3n[nH]c4ncccc34)n2)CCN1 (stereo not drawn) [Compound 282] |
| > 1250 | < 500 | < 50 | CC(C)C(C)(O)C1CN(c2nc(-c3n[nH]c4ncccc34)ccc2F)CCN1 (stereo not drawn) [Compound 376] |
| > 1250 | < 500 | < 50 | CC(C)(C)C[C@H]1CN(c2ccc(F)c(-c3n[nH]c4ncccc34)n2)CCN1 [Compound 142] |
| > 1250 | < 2800 | < 500 | CC(C)(N)C1CCN(c2ccc(F)c(-c3n[nH]c4ncccc34)n2)C1 (stereo not drawn) [Compound 360] |
| > 1250 | > 1250 | < 500 | CC1CN(c2ccc(F)c(-c3n[nH]c4ncccc34)n2)CC1CN (stereo not drawn) [Compound 313] |
| > 1250 | < 2800 | < 50 | CCC1CN(c2ccc(F)c(-c3n[nH]c4ncccc34)n2)CCC1C#N (stereo not drawn) [Compound 407] |
| < 2800 | < 500 | < 50 | CC(C)C(N)C1CCCN(c2ccc(F)c(-c3n[nH]c4ncccc34)n2)C1 (stereo not drawn) [Compound 280] |
| > 1250 | < 2800 | < 500 | CC(C)CC1(CN)CCCN(c2ccc(C(F)(F)F)c(-c3n[nH]c4ncccc34)n2)C1 (stereo not drawn) [Compound 352] |
| > 1250 | > 1250 | > 700 | NC1CCCN(c2ccc(C(F)(F)F)c(-c3n[nH]c4ncccc34)n2)C1 (stereo not drawn) [Compound 122] |
| > 1250 | > 1250 | > 700 | FC(F)(F)c1ccc(C2CCNCC2)nc1-c1n[nH]c2ncccc12 [Compound 431] |
| > 1250 | > 1250 | > 700 | NCC1CN(c2ccc(C(F)(F)F)c(-c3n[nH]c4ncccc34)n2)CCO1 (stereo not drawn) [Compound 336] |
| > 1250 | > 1250 | > 700 | CC(C)CC1CN(c2ccc(C(F)(F)F)c(-c3n[nH]c4ncccc34)n2)CC(CF)N1 (stereo not drawn) [Compound 217] |
| > 1250 | > 1250 | < 500 | CCC1CN(c2ccc(C(F)(F)F)c(-c3n[nH]c4ncccc34)n2)CCC1C#N (stereo not drawn) [Compound 406] |
| > 1250 | < 500 | < 50 | NC1(C2CCCN(c3ccc(F)c(-c4n[nH]c5ncccc45)n3)C2)CCCC1 (stereo not drawn) [Compound 344] |
| < 2800 | < 500 | < 50 | CC(C)C[C@H]1CN(c2cccc(-c3n[nH]c4ncccc34)n2)CC[C@H]1N [Compound 118] |
| > 1250 | > 1250 | < 500 | C1=C(c2cccc(-c3n[nH]c4ncccc34)n2)CCNC1 [Compound 157] |
